Results taken from PubChem BioAssay (NCI).
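96-well plates; 48 h exposure; 5 concentrations. Endpoints by linear interpolation between flanking doses. Not reached: highest tested concentration assigned. TGI is the concentration that stops growth completely.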

Key:
Experiment in all cases: NCI anticancer screen, dose series, 48 h
786-0 renal = system: 786-0 renal
A498 renal = system: A498 renal
A549 NSCLC = system: A549 NSCLC
ACHN renal = system: ACHN renal
CAKI-1 renal = system: CAKI-1 renal
CCRF-CEM leukemia = system: CCRF-CEM leukemia
COLO 205 colon = system: COLO 205 colon
DLD-1 colon = system: DLD-1 colon
DMS 114 small cell lung = system: DMS 114 small cell lung
DMS 273 small cell lung = system: DMS 273 small cell lung
EKVX NSCLC = system: EKVX NSCLC
HCC-2998 colon = system: HCC-2998 colon
HCT-116 colon = system: HCT-116 colon
HCT-15 colon = system: HCT-15 colon
HL-60(TB) leukemia = system: HL-60(TB) leukemia
HOP-18 NSCLC = system: HOP-18 NSCLC
HOP-62 NSCLC = system: HOP-62 NSCLC
HOP-92 NSCLC = system: HOP-92 NSCLC
HT29 colon = system: HT29 colon
IGROV1 ovarian = system: IGROV1 ovarian
K-562 leukemia = system: K-562 leukemia
KM12 colon = system: KM12 colon
KM20L2 colon = system: KM20L2 colon
LOX IMVI melanoma = system: LOX IMVI melanoma
LXFL 529 NSCLC = system: LXFL 529 NSCLC
M14 melanoma = system: M14 melanoma
M19-MEL melanoma = system: M19-MEL melanoma
MALME-3M melanoma = system: MALME-3M melanoma
MOLT-4 leukemia = system: MOLT-4 leukemia
NCI-H226 lung = system: NCI-H226 lung
NCI-H23 lung = system: NCI-H23 lung
NCI-H460 lung = system: NCI-H460 lung
NCI-H522 lung = system: NCI-H522 lung
OVCAR-3 ovarian = system: OVCAR-3 ovarian
OVCAR-4 ovarian = system: OVCAR-4 ovarian
OVCAR-5 ovarian = system: OVCAR-5 ovarian
OVCAR-8 ovarian = system: OVCAR-8 ovarian
RPMI-8226 leukemia = system: RPMI-8226 leukemia
RXF 393 renal = system: RXF 393 renal
SF-268 CNS = system: SF-268 CNS
SF-295 CNS = system: SF-295 CNS
SF-539 CNS = system: SF-539 CNS
SK-MEL-2 melanoma = system: SK-MEL-2 melanoma
SK-MEL-28 melanoma = system: SK-MEL-28 melanoma
SK-MEL-5 melanoma = system: SK-MEL-5 melanoma
SK-OV-3 ovarian = system: SK-OV-3 ovarian
SN12C renal = system: SN12C renal
SNB-19 CNS = system: SNB-19 CNS
SNB-75 CNS = system: SNB-75 CNS
SNB-78 CNS = system: SNB-78 CNS
SR leukemia = system: SR leukemia
SW-620 colon = system: SW-620 colon
TK-10 renal = system: TK-10 renal
U251 CNS = system: U251 CNS
UACC-257 melanoma = system: UACC-257 melanoma
UACC-62 melanoma = system: UACC-62 melanoma
UO-31 renal = system: UO-31 renal
XF 498 CNS = system: XF 498 CNS
RXF-631 renal = system: RXF-631 renal

Measured: TGI

C(/COc1cccnc1)=N\NC1=NCCN1
not listed: RXF-631 renal
> 100 µM: all other assays above

CC1CC(=O)C(C(O)CC2CC(=O)N(c3ccccc3)C(=O)C2)C(C)C1 (stereo unspecified)
not listed: HCT-15 colon | SK-MEL-2 melanoma | SK-MEL-5 melanoma | XF 498 CNS | RXF-631 renal
> 100 µM: all other assays above

O=C(C#Cc1c[nH]c(=O)[nH]c1=O)c1ccccc1
14.5 µM: SF-539 CNS
53.7 µM: HT29 colon
21.8 µM: UACC-62 melanoma
32 µM: SNB-19 CNS
27.4 µM: RXF-631 renal
22 µM: HCT-116 colon
19.6 µM: COLO 205 colon
63.9 µM: NCI-H226 lung
14.3 µM: HL-60(TB) leukemia
26.9 µM: U251 CNS
24.6 µM: 786-0 renal
64.1 µM: A549 NSCLC
18.9 µM: SW-620 colon
6.05 µM: RXF 393 renal
29.2 µM: HOP-18 NSCLC
7.8 µM: CCRF-CEM leukemia
27.1 µM: M19-MEL melanoma | OVCAR-4 ovarian
18 µM: M14 melanoma
30.1 µM: RPMI-8226 leukemia
29.1 µM: A498 renal
5.99 µM: OVCAR-3 ovarian
27 µM: HOP-92 NSCLC
22.9 µM: SK-MEL-28 melanoma
33.1 µM: OVCAR-5 ovarian | SNB-75 CNS
24.8 µM: SK-MEL-2 melanoma
26.8 µM: SF-268 CNS
24.9 µM: EKVX NSCLC | HCT-15 colon
> 100 µM: SF-295 CNS
27.6 µM: NCI-H23 lung
29 µM: KM12 colon
32.4 µM: HCC-2998 colon
28.6 µM: NCI-H460 lung
38.5 µM: SNB-78 CNS
32.3 µM: CAKI-1 renal
25.2 µM: SK-MEL-5 melanoma
32.5 µM: IGROV1 ovarian
35.4 µM: DMS 114 small cell lung
31.8 µM: UO-31 renal
29.6 µM: ACHN renal
36.1 µM: HOP-62 NSCLC
15.2 µM: MALME-3M melanoma
7.96 µM: MOLT-4 leukemia
15.9 µM: SN12C renal
23.8 µM: UACC-257 melanoma
14.4 µM: K-562 leukemia
16.3 µM: LOX IMVI melanoma
23.4 µM: DLD-1 colon
28.9 µM: DMS 273 small cell lung
26.7 µM: TK-10 renal
22.4 µM: OVCAR-8 ovarian
62.9 µM: SK-OV-3 ovarian
